# Test results: patent EP3046573B1, “AMYLIN ANALOGUES” (Zealand Pharma A/S, priority 2013, dated 2015)
# Numbered stars: 1 amine (or outer) side, 2 acyl side, 3 side chain; on linkers, the order of the positions; unused ones are H or OH. Bridge positions count the residues as written; N and C are the ends. Square brackets hold non-standard residues; d marks the D form. Peptide text beside a SMILES is read from it. * marks the point of attachment. C20 diacid = O=C(O)CCCCCCCCCCCCCCCCCCC(=O)*; γGlu = O=C(O)[C@H](CCC(=O)[*:2])N[*:1]; NMeI = CC[C@H](C)[C@H](NC)C(=O)O; Sar = CNCC(=O)O
# Columns and labels:
# [1] = target: T1, human calcitonin receptor (hCTR2) (Homo sapiens, UniProt P30988); test: hCTR2 assay: induction of cAMP (AlphaScreen cAMP Assay kit) in COS7 cells expressing hCTR2; type: cell-based
# T1 construct: expressed in transfected cells
# T1 sequence (P30988 25-474): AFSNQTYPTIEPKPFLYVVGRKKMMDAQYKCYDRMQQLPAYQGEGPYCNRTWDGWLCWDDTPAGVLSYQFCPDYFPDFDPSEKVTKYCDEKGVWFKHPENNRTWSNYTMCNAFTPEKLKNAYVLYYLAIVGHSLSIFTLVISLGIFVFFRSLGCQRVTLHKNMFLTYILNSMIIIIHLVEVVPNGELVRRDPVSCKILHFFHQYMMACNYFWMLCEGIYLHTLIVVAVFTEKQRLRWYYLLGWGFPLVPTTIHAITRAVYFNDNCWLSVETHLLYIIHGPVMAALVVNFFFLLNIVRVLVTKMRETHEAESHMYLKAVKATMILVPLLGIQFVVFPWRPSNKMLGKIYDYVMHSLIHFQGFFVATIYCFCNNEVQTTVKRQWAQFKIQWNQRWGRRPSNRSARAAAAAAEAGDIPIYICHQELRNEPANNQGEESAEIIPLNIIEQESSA
# Method in brief: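 cAMP induction was measured by AlphaScreen in COS7 cells stably expressing hCTR2 without RAMPs, after 15 min at 37° C with increasing peptide concentrations, 100 µM IBMX and 0.1% casein (Tyrode, pH 7.4). A 4-parameter logistic fit gave EC50 and % efficacy versus pramlintide.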
# [2] = Solubility assessment (turbidity absorbance at 325 nm); type: physicochemical; details: stock 2 mg/ml diluted 1:1, ambient temperature (typically 25°C), n=1; for Solubility, Acetate buffer pH 4: 100 mM acetate buffer pH 4.0; for Solubility, Acetate buffer pH 5: 100 mM acetate buffer pH 5.0; for Solubility, Histidine buffer pH 6: 100 mM histidine buffer pH 6.0; for Solubility, Histidine buffer pH 7: 100 mM histidine buffer pH 7.0; for Solubility, Phosphate buffer pH 6: 100 mM phosphate buffer pH 6.0; for Solubility, Phosphate buffer pH 7: 100 mM phosphate buffer pH 7.0; for Solubility, Phosphate buffer pH 7.5: 100 mM phosphate buffer pH7.5
# Method in brief: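 Read-out: turbidity as absorbance at 325 nm (280 nm also read), single samples, ambient temperature of typically 25°C. Samples were a 1:1 mix of 2 mg/ml stock (water, pH 2.5) with 100 mM acetate, histidine or phosphate buffers spanning pH 4.0–7.5. Cut-off: A325 ≤ 0.02 indicates ≥ 1 mg/ml.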
# Sprague Dawley (SD) rats = test: Acute food intake and body weight in normal Sprague Dawley rats; type: in vivo; details: vehicle-corrected, dose 30 nmol/kg sc, once; for Body weight loss (%) after 96 hours: mean ± SEM, n = 8
# Method: Sprague Dawley (SD) rats were obtained from Taconic A/S, Denmark. The animals arrived at least 7 days before the study start to allow acclimatization to experimental conditions. From arrival and throughout the study, the rats were housed in groups of 2 (n = 2) in a light-, temperature- and humidity-controlled room (reversed 12/12 h light/dark cycle: lights turned off during day-time and on during night-time; temperature 20-22°C; relative humidity 50-80%). Animals had access ad libitum to food (Altromin™ 1324, Brogaarden A/S, Gentofte, Denmark) and water (domestic quality tap water with citric acid added to pH ∼ 3.6) during the entire study. Stratification of rats was based on body weight (BW) on a cage-by-cage basis; mean BWs per cage were used as the basis for pairing four cages together in a group (n = 8 per group). A vehicle group and positive control group were included in each set of tests. Rats were dosed subcutaneously (sc) once in the morning immediately before turning off the lights, using a body weight-corrected dose of peptide (30 nmol/kg). Dosing volume was 5 ml/kg. Food intake was recorded manually at t = 0 (pre-dose) and at t = 4, 7, 10, 24, 48, 72 and 96 hours after dosing. Body weight was measured daily.
# Statistical analyses on body weight were performed using GraphPad™ Prism version 5. The measured parameters were compared using unpaired t tests. Differences were considered statistically significant at p < 0.05. Data are means ± SEM; n =8.
Structure (SMILES),EC50 [1],"Solubility, Acetate buffer pH 4 [2]","Solubility, Acetate buffer pH 5 [2]","Solubility, Histidine buffer pH 6 [2]","Solubility, Histidine buffer pH 7 [2]","Solubility, Phosphate buffer pH 6 [2]","Solubility, Phosphate buffer pH 7 [2]","Solubility, Phosphate buffer pH 7.5 [2]",Food intake inhibition (%) after 48 hours (Sprague Dawley (SD) rats),Body weight loss (%) after 96 hours (Sprague Dawley (SD) rats)
"CC[C@H](C)[C@@H](C(=O)N[C@@H](CC(C)C)C(=O)N[C@@H](CO)C(=O)N[C@@H](CO)C(=O)N[C@H](C(=O)N[C@@H](CC(N)=O)C(=O)N[C@H](C(=O)NCC(=O)N[C@@H](CO)C(=O)N[C@@H](CC(N)=O)C(=O)N[C@H](C(=O)N1CCC[C@H]1C(N)=O)[C@@H](C)O)C(C)C)[C@@H](C)O)N(C)C(=O)[C@H](C)NC(=O)CN(C)C(=O)[C@H](Cc1ccccc1)NC(=O)[C@H](CC(N)=O)NC(=O)[C@H](CC(N)=O)NC(=O)[C@H](CO)NC(=O)[C@H](CO)NC(=O)[C@H](CCCNC(=N)N)NC(=O)[C@H](Cc1c[nH]cn1)NC(=O)[C@H](CC(C)C)NC(=O)[C@H](Cc1ccccc1)NC(=O)[C@H](CCC(=O)O)NC(=O)[C@H](C)NC(=O)[C@H](CC(C)C)NC(=O)[C@H](CCCNC(=N)N)NC(=O)[C@H](CCC(N)=O)NC(=O)[C@@H](NC(=O)[C@H](C)NC(=O)[C@@H]1CSSC[C@H](NC(=O)[C@H](CCCNC(=N)N)NC(=O)CC[C@H](NC(=O)CCCCCCCCCCCCCCCCCCC(=O)O)C(=O)O)C(=O)N[C@@H](CC(N)=O)C(=O)N[C@@H]([C@@H](C)O)C(=O)N[C@@H](C)C(=O)N[C@@H]([C@@H](C)O)C(=O)N1)[C@@H](C)O [Compound 18, [19CD]-isoGlu-RC()NTATC()ATQRLAEFLHRSSNNF-Gly(Me)-A-Ile(Me)-LSSTNVGSNTP-NH2] ({C20 diacid-γGlu}-RCNTATCATQRLAEFLHRSSNNF[Sar]A[NMeI]LSSTNVGSNTP-NH2; disulfide 2-7)",0.06 nM,SS (SS indicates solubility ≥ 1mg/ml),SS (SS indicates solubility ≥ 1mg/ml),SS (SS indicates solubility ≥ 1mg/ml),SS (SS indicates solubility ≥ 1mg/ml),SS (SS indicates solubility ≥ 1mg/ml),SS (SS indicates solubility ≥ 1mg/ml),SS (SS indicates solubility ≥ 1mg/ml),98%,13 ± 0.8%
"CC[C@H](C)[C@@H](C(=O)N[C@@H](CC(C)C)C(=O)N[C@H](CO)C(=O)N[C@@H](CO)C(=O)N[C@H](C(=O)N[C@@H](CC(N)=O)C(=O)N[C@H](C(=O)NCC(=O)N[C@@H](CO)C(=O)N[C@@H](CC(N)=O)C(=O)N[C@H](C(=O)N1CCC[C@H]1C(N)=O)[C@@H](C)O)C(C)C)[C@@H](C)O)N(C)C(=O)[C@H](C)NC(=O)CN(C)C(=O)[C@@H](Cc1ccccc1)NC(=O)[C@H](CC(N)=O)NC(=O)[C@H](CC(N)=O)NC(=O)[C@H](CO)NC(=O)[C@H](CO)NC(=O)[C@H](CCCNC(=N)N)NC(=O)[C@H](Cc1c[nH]cn1)NC(=O)[C@H](CC(C)C)NC(=O)[C@H](Cc1ccccc1)NC(=O)[C@H](CCC(=O)O)NC(=O)[C@H](C)NC(=O)[C@H](CC(C)C)NC(=O)[C@H](CCCNC(=N)N)NC(=O)[C@H](CCC(N)=O)NC(=O)[C@@H](NC(=O)[C@H](C)NC(=O)[C@@H]1CSSC[C@H](NC(=O)[C@H](CCCCN)NC(=O)CC[C@H](NC(=O)CCCCCCCCCCCCCCCCCCC(=O)O)C(=O)O)C(=O)N[C@@H](CC(N)=O)C(=O)N[C@@H]([C@@H](C)O)C(=O)N[C@@H](C)C(=O)N[C@@H]([C@@H](C)O)C(=O)N1)[C@@H](C)O [Compound 72, [19CD]-isoGlu-KC()NTATC()ATQRLAEFLHRSSNN-DPhe-Gly(Me)-A-Ile(Me)-L-DSer-STNVGSNTP] ({C20 diacid-γGlu}-KCNTATCATQRLAEFLHRSSNN[dF][Sar]A[NMeI]L[dS]STNVGSNTP-NH2; disulfide 2-7)",0.071 nM,SS (SS indicates solubility ≥ 1mg/ml),SS (SS indicates solubility ≥ 1mg/ml),SS (SS indicates solubility ≥ 1mg/ml),SS (SS indicates solubility ≥ 1mg/ml),SS (SS indicates solubility ≥ 1mg/ml),SS (SS indicates solubility ≥ 1mg/ml),SS (SS indicates solubility ≥ 1mg/ml),99%,12 ± 1.2%
